The record followed here is article PMC4012739, “Targeted inhibition of cell-surface serine protease Hepsin blocks prostate cancer bone metastasis” (Oncotarget, 2014).

This test concerns the target T1, Hepsin (Homo sapiens, UniProt P05981).
T1 construct: gene HPN; Extracellular part of human Hepsin (amino acids 45-417), SRCR and trypsin-like serine protease domains
Kind of test: chromogenic peptide (pyroGlu-Pro-Arg-pNA) protease assay with purified recombinant Hepsin; also pro-HGF cleavage. It is filed as biochemical.

Structures are written as SMILES.

T1 sequence (P05981 45-162): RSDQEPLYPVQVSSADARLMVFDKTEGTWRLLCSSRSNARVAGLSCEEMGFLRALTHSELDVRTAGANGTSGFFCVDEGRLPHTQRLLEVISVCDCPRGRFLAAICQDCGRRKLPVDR
T1 sequence (P05981 163-417): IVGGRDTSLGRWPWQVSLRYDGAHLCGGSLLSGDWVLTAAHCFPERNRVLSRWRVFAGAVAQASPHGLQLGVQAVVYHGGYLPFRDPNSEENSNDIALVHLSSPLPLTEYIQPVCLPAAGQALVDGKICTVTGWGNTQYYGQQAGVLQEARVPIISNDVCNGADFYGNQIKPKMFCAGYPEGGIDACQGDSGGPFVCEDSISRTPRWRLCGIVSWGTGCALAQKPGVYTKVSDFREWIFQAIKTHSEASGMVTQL

For the compound `Brc1ccc(C2Nc3cccc4cccc(c34)N2)cc1` [HepIn-13], the IC50 came out at 330 nM.

For orientation: IC50 means the concentration that gives 50% inhibition.
